# Values of other authors as cited in patent US20250221938A1, “PHARMACEUTICAL COMPOSITION, METHODS FOR TREATING AND USES THEREOF” (Boehringer Ingelheim International GmbH, priority 2015, published 2025).
# Structures can show the parent of a compound that is named as a salt.
# Conditions: metformin on its own, in the diabetic
compound,measurement,value
"CN(C)C(=N)N=C(N)N [metformin, metformin hydrochloride]",average improvement in the HbA1c value,1.0-1.5%
